Reference: US11673897B2, “Compounds for the treatment of kinase-dependent disorders” (Exelixis, Inc., priority 2018, dated 2023)

Tests used:
Human Axl = Human Axl (Homo sapiens (Human), UniProt P30530, Q764R); assay: Human AXL kinase assay (33P radiometric, KinaseProfiler); type: biochemical; settings: 10 μM ATP
Procedure: (§1) Kinase activity and compound inhibition were investigated using the ^33P-Phosphoryl transfer radiometric kinase assay, performed using the KinaseProfiler™ service of Eurofins Pharma Discovery Services UK Limited. Dose-response experiments were performed using nine compound concentrations in a 96-well microtiter plate. For each assay, all compounds were prepared to a 50× final assay concentration (50 μM) in 100% DMSO, then diluted in a half-log series, with the final top concentration at 1 μM. This working stock of the compound was added to the assay well as the first component in the reaction, followed by the remaining components as detailed in the following assay protocols below. The positive control wells (100% kinase activity) contain all components of the reaction including 2% DMSO (control for solvent effects), except the compound of interest. Blank wells contain all components of the reaction, with the reference inhibitor, staurosporine. This reference compound was used to abolish kinase activity and generated the 0% kinase activity base-line. IC50 values were calculated by nonlinear regression analysis using the sigmoidal dose-response (variable slope) curve fit on XLFit version 5.3 (ID Business Solutions).
Human Axl (residues H473-A894 with Q764R, 161 nM) was incubated with 8 mM MOPS pH 7.0, 0.2 mM EDTA, 250 μM KKSRGDYMTMQIG (SEQ ID NO. 43), 10 mM magnesium acetate and 10 μM [γ-33P-ATP]. The reaction was initiated by the addition of the Mg/ATP mix. After incubation for 40 minutes at room temperature, the reaction was stopped by the addition of phosphoric acid to a concentration of 0.5%. A reaction aliquot of 10 μL was then spotted onto a P30 filtermat and washed four times for 4 minutes in 0.425% phosphoric acid and once in methanol prior to drying and scintillation counting. Incorporated ^33P was measured using the Wallac Microbeta scintillation counter (Perkin Elmer).

Mer = Mer (Homo sapiens (Human), UniProt Q12866); assay: Human Mer kinase assay (33P radiometric, KinaseProfiler); type: biochemical; settings: 10 μM ATP
Procedure: as §1
Human Mer (residues R557-E882 with H628Q and R794A, 0.7 nM) was incubated with 8 mM MOPS pH 7.0, 0.2 mM EDTA, 30 mM NaCl, 250 μM GGMEDIYFEFMGGKKK (SEQ ID NO. 44), 10 mM magnesium acetate, and 10 μM [γ-^33P-ATP]. The reaction was initiated by the addition of the Mg/ATP mix. After incubation for 40 minutes at room temperature, the reaction was stopped by the addition of phosphoric acid to a concentration of 0.5%. A reaction aliquot of 10 μL was then spotted onto a P30 filtermat and washed four times for 4 minutes in 0.425% phosphoric acid and once in methanol prior to drying and scintillation counting. Incorporated ^33P was measured using the Wallac Microbeta scintillation counter (Perkin Elmer).

Met = Met (Homo sapiens (Human), UniProt P08581); assay: Human Met kinase assay (33P radiometric, KinaseProfiler); type: biochemical; settings: 10 μM ATP, read-out: c-Met IC50
Procedure: as §1
Human Met (residues R974-S1390 with A1209G and V1290L, 3.4 nM) was incubated with 8 mM MOPS pH 7.0, 0.2 mM EDTA, 250 μM KKKGQEEEYVFIE (SEQ ID NO. 45), 1 mM sodium orthovanadate, 5 mM […], 10 mM magnesium acetate, and 10 μM [γ-33P-ATP]. The reaction was initiated by the addition of the Mg/ATP mix. After incubation for 40 minutes at room temperature, the reaction was stopped by the addition of phosphoric acid to a concentration of 0.5%. A reaction aliquot of 10 μL was then spotted onto a P30 filtermat and washed four times for 4 minutes in 0.425% phosphoric acid and once in methanol prior to drying and scintillation counting. Incorporated 33P was measured using the Wallac Microbeta scintillation counter (Perkin Elmer).

AXL = AXL (Homo sapiens (Human), UniProt P30530); assay: AXL autophosphorylation ELISA in A-172 cells; type: cell-based; settings: cellular, Gas6-stimulated, phospho-AXL ELISA
Outline: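 A-172 glioblastoma cells, serum-starved 24 h, took compounds for 1 h (8-point curve, 0.3% DMSO) before 15 min stimulation with 1 μg/mL recombinant human Gas6. Lysate phospho-AXL measured by ELISA against a phospho-AXL standard, normalized to DMSO (100%) and reference inhibitor (0%); IC50 from 4-parameter logistic fit.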

KDR = KDR (Homo sapiens (Human), UniProt P35968); assay: KDR autophosphorylation ELISA in HUVEC cells; type: cell-based; settings: cellular, VEGF165-stimulated, phospho-KDR ELISA
Outline: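 Inhibition of VEGF165-induced KDR phosphorylation was determined in serum-starved HUVEC after 1 h compound pretreatment and 5 min stimulation with 100 ng/mL VEGF165. Lysate phospho-KDR was measured by ELISA; IC50 values came from a 4-parameter logistic fit of 8-point curves.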

KDR, sequence (P35968 20-1356): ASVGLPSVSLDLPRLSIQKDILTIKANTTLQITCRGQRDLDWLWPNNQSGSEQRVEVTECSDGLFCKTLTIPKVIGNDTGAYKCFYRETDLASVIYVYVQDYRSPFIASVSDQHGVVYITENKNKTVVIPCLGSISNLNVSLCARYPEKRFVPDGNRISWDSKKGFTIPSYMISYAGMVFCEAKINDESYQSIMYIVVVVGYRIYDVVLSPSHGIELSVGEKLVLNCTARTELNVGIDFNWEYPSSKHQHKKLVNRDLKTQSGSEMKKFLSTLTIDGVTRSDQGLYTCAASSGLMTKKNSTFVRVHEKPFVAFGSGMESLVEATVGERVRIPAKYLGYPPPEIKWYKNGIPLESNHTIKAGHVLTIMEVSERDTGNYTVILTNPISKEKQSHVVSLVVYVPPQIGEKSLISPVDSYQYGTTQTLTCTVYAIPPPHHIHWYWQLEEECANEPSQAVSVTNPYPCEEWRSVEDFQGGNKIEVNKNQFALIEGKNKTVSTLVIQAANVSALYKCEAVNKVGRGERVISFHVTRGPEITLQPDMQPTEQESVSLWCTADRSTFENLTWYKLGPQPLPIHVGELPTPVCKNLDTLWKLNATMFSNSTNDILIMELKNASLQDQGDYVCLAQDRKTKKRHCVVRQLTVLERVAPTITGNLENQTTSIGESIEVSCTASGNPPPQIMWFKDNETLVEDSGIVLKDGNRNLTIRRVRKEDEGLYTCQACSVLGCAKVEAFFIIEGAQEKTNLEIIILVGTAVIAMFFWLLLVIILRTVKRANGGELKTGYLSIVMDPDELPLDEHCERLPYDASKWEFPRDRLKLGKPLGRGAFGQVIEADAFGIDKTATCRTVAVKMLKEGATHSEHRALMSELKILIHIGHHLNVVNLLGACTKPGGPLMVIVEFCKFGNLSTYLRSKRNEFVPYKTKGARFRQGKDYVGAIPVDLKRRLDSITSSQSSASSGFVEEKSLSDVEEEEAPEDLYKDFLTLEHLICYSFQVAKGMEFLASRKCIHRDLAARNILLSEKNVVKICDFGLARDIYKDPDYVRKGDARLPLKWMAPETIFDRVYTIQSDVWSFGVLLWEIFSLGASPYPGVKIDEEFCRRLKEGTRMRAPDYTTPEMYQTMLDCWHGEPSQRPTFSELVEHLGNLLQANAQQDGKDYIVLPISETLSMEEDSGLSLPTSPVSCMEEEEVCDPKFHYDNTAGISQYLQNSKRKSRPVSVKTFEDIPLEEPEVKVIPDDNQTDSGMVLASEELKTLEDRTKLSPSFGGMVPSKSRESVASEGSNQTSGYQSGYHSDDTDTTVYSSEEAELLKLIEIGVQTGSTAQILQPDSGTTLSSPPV
AXL, sequence (P30530 26-894): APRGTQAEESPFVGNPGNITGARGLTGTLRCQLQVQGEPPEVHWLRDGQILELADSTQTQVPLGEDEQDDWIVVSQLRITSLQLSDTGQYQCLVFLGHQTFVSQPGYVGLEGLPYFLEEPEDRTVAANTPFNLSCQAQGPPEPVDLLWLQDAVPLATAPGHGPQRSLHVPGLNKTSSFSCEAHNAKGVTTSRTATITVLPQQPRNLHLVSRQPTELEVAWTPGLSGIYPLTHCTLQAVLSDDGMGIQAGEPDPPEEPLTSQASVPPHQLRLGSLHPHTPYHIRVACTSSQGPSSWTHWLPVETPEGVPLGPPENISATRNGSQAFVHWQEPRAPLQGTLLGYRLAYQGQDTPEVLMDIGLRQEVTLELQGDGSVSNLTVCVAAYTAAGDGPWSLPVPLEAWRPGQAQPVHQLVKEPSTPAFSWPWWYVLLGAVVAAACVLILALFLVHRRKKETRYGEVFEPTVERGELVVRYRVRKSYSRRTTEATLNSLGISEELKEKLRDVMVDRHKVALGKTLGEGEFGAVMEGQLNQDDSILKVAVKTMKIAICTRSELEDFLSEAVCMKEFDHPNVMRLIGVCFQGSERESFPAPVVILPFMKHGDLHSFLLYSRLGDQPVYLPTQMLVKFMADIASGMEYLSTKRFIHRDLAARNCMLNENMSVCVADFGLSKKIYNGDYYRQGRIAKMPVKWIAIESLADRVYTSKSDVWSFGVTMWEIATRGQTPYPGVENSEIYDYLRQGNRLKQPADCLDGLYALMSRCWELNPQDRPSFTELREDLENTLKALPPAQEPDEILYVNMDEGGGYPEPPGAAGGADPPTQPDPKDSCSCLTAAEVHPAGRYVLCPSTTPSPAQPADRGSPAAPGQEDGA
Human Axl, sequence (P30530 473-894 Q764R): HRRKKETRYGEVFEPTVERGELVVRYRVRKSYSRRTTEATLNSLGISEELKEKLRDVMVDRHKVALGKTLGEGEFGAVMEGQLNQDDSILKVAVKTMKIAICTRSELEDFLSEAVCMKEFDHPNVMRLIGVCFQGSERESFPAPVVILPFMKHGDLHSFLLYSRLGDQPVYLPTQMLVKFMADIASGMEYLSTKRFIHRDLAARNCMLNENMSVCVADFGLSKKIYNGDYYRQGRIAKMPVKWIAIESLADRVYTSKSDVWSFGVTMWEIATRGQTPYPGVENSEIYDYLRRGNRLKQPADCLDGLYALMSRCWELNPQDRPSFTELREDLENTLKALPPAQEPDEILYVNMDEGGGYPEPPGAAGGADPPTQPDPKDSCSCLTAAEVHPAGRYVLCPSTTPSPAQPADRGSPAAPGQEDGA
Mer, sequence (Q12866 557-882): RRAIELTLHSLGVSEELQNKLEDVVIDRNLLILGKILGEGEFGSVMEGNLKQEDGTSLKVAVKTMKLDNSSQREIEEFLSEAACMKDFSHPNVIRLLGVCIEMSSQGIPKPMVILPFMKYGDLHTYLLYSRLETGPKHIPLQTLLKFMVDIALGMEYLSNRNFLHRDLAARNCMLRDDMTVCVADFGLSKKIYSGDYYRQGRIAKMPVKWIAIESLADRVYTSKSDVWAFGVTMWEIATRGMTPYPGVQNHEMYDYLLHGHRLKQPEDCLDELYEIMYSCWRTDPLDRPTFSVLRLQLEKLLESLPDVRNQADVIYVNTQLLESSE

- IC50 (Human Axl): 100 to 1000 nM
- IC50 (Mer): 100 to 1000 nM
- IC50 (Met): 10 to 100 nM
- IC50 (AXL): > 300 nM
- IC50 (KDR): > 300 nM
Structure (SMILES): COc1cc2nccc(Oc3ncc(NC(=O)C4(C(=O)Nc5ccc(F)cc5)CC4)cc3Cl)c2cc1C(=O)O [Compound 14, 4-[3-Chloro-5-[[1-[(4-fluorophenyl)carbamoyl]cyclopropanecarbonyl]amino]pyridin-2-yl]oxy-7-methoxyquinoline-6-carboxylic acid]
